Like-named read-outs stand apart in the source and are kept apart here.
Assays:
K562 cells [1] = test: Combination treatment with cytotoxic agents, WST-1 assay, K562; details: Homo sapiens, K562, 72 h, read-out: cell growth/viability, mean percentage normalized to the untreated control
K562 cells [2] = test: Standalone cytotoxicity, WST-1 colorimetric assay, K562; type: cell-based; details: Homo sapiens
Experimental: (§1) All the cell lines were grown at density of 1×10^5 cells per ml and seeded (100 μl of cell suspension/well) on 96-well microtiter plates with or without escalating doses of SMAC-mimic compounds. Cells were incubated at 37° C. in a 5% CO2 fully humidified atmosphere and examined at 24, 48 and 72 hours for cytotoxicity with the WST-1 colorimetric assay. […] Data are expressed as mean percentage of three replicates normalized to the untreated control.

HL60 cells [3] = test: Standalone cytotoxicity, WST-1 colorimetric assay, HL60; type: cell-based; details: Homo sapiens, HL-60
Experimental: as §1

KMS26 cell line = test: Standalone cytotoxicity, WST-1 colorimetric assay, KMS26; type: cell-based; details: Homo sapiens, KMS-26
Experimental: as §1

ARH77 cell line = test: Standalone cytotoxicity, WST-1 colorimetric assay, ARH77; type: cell-based; details: Homo sapiens, ARH-77
Experimental: as §1, with “HL60 and K562 human cell lines were cultured in RPMI 1640 culture medium supplemented with 10% FBS while the ARH77 and KMS26 cell lines were cultured in IMDM culture medium supplemented with 10% FBS. All” for “All”

MDA-MB-231 cells = test: Standalone cytotoxicity, MTT assay, MDA-MB-231; type: cell-based; details: Homo sapiens; for IC50: read-out: IC50 (μM ± standard Deviation); for IC80: read-out: IC80 (μM ± standard Deviation)
Experimental: Reagents for cell culture were purchased from Sigma unless otherwise indicated below. […] A subcultivation ratio of 1:4 was used.
(§2) The cellular growth inhibitory effect of our compounds was evaluated using the MTT assay (Sigma). After 96 hours of treatment, 10 μl of MTT reagent solution (5 mg of MTT powder/ml diluted in Phosphate Buffer Salt saline solution) were added in each well and allowed to react for 3 hours in the incubator. After 3 hours cells were solubilized in Lysis Buffer (10% SDS/0.1% HCl in water, 100 μl for each well) for 24 hours at 37° C. Finally, the absorbance was measured at 570 nm using a multiplate reader. Absorbance values were collected and IC50/IC80 values were determined using GraphPad Prism 5 software. The experiments were repeated twice.
MDA-MB-231 cells were seeded in 96-well flat bottom cell culture plates at a density of 5000 cells/well in 100 μl of culture medium and allowed to adhere for 24 hours in the incubator. After 24 hours MDA-MB-231 cells were exposed to the compounds at various concentrations for 96 hours in the incubator (50 nM, 100 nM, 200 nM, 500 nM, 1 μM, 5 μM, 10 μM, 50 μM and 100 μM). Each point was done in triplicate.
as §2, with “After” for “The cellular growth inhibitory effect of our compounds was evaluated using the MTT assay (Sigma). After”

[4] = target: T1, human XIAP linker-BIR2-BIR3 (Homo sapiens, UniProt P98170); test: Fluorescence polarization competitive binding, displacement of SMAC-1F probe from XIAP linker-BIR2-BIR3-His-tag; details: XIAP linker-BIR2-BIR3, average of three independent measurements
T1 construct: human XIAP from residue 124 to 356 (linker-BIR2-BIR3); made in house; host or cells: Escherichia coli BL21
Experimental: (§3) Data were analyzed using Prism 4.0 software (Graphpad Software).

human XIAP BIR3 domain = target: T2, human XIAP BIR3 domain (Homo sapiens, UniProt P98170); test: Fluorescence polarization competitive binding, displacement of FITC-SMAC probe from XIAP BIR3-His-tag; details: XIAP BIR3, average of three independent measurements
T2 construct: human XIAP BIR3 domain from residue 241 to 356; made in house; host or cells: Escherichia coli BL21
Experimental: as §3

HL60 cells [5] = test: Combination treatment with cytotoxic agents, WST-1 assay, HL60; type: cell-based; details: Homo sapiens, HL-60, 72 h; read-out: cell growth/viability, mean percentage normalized to the untreated control
XIAP = XIAP (Homo sapiens, UniProt P98170); details: background statement; cited from earlier work
XIAP, sequence (P98170 whole entry): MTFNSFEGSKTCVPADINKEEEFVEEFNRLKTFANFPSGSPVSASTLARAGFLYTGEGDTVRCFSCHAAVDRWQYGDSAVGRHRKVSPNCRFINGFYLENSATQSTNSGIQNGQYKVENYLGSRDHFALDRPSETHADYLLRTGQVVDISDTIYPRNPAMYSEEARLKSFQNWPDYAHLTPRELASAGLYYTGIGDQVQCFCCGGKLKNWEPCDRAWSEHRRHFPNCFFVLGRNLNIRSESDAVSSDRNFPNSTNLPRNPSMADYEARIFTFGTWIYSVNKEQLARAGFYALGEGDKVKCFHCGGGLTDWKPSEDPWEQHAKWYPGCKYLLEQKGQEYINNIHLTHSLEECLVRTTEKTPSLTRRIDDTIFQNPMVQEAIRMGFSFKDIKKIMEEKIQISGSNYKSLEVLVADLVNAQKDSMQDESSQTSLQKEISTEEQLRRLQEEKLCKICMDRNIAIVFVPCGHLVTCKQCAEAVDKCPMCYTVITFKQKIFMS

T1 sequence (P98170 124-356): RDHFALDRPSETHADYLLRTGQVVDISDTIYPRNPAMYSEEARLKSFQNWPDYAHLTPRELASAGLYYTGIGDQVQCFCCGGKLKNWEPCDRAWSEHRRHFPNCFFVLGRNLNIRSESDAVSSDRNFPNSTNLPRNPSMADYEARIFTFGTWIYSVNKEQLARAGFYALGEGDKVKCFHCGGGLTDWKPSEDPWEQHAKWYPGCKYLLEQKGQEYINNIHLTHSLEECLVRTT
T2 sequence (P98170 241-356): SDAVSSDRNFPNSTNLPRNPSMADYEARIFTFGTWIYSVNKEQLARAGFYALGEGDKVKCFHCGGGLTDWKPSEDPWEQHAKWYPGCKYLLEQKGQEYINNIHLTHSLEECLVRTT

Work on `CC(=O)O[C@H]1C(=O)[C@@]2(C)[C@H]([C@H](OC(=O)c3ccccc3)[C@]3(O)C[C@H](OC(=O)[C@H](O)[C@@H](NC(=O)c4ccccc4)c4ccccc4)C(C)=C1C3(C)C)[C@]1(OC(C)=O)CO[C@@H]1C[C@@H]2O` [Taxol, taxol, reference compound] yielded a viability at 0.1 µM (K562 cells [1]) of 69%.

In the case of `CC[C@H](N)C(=O)N[C@@H]1C(=O)N2[C@@H](CC[C@@H]1CN=[N+]=[N-])CC[C@H]2C(=O)NC(c1ccccc1)c1ccccc1` [Compound 25a], the IC50 (K562 cells [2]; K562, 24 hrs) is reported as 4.78 µM, the IC50 (K562 cells [2]; K562, 48 hrs) is reported as 3.95 µM and the IC50 (K562 cells [2]; K562, 72 hrs) is reported as 2.13 µM. It also gave an IC50 (HL60 cells [3]; HL60, 24 hrs) greater than 10 µM, an IC50 (HL60 cells [3]; HL60, 48 hrs) of 3.32 µM and an IC50 (HL60 cells [3]; HL60, 72 hrs) of 0.0018 µM.

Molecule `CC[C@H](N)C(=O)N[C@@H]1C(=O)N2[C@@H](CC[C@@H]1CN)CC[C@H]2C(=O)NC(c1ccccc1)c1ccccc1` [Compound 26a] has an IC50 (K562 cells [2]; K562, 24 hrs) of 0.593 µM, an IC50 (K562 cells [2]; K562, 48 hrs) of 6e-05 µM and an IC50 (K562 cells [2]; K562, 72 hrs) of 8e-05 µM. The IC50 (KMS26 cell line; KMS26, 24 hrs) was greater than 10000 nM, the IC50 (KMS26 cell line; KMS26, 48 hrs) was 0.002 nM and the IC50 (KMS26 cell line; KMS26, 72 hrs) was 62.3 nM. It also gave an IC50 (ARH77 cell line; ARH77, 24 hrs) greater than 10 µM, an IC50 (ARH77 cell line; ARH77, 48 hrs) greater than 10 µM and an IC50 (ARH77 cell line; ARH77, 72 hrs) greater than 10 µM.

`CC[C@H](N)C(=O)N[C@@H]1C(=O)N2C(CC[C@@H]1CNC(=O)CCC#CC#CCCC(=O)NC[C@H]1CC[C@H]3CC[C@@H](C(=O)NC(c4ccccc4)c4ccccc4)N3C(=O)[C@H]1NC(=O)[C@@H](N)CC)CC[C@H]2C(=O)NC(c1ccccc1)c1ccccc1` (some centres unmarked) [Compound 46a] gave an IC50 (MDA-MB-231 cells; MDA-MB-231, 96 hours, MTT) of 0.116 ± 0.002 µM and an IC80 (MDA-MB-231 cells; MDA-MB-231, 96 hours, MTT) of 0.17 ± 0.002 µM.

`CC[C@H](N)C(=O)N[C@@H]1C(=O)N2[C@@H](CC[C@@H]1CCN)CC[C@H]2C(=O)NC(c1ccccc1)c1ccccc1` [Compound 38a] showed an IC50 [4] of 0.085 µM, an IC50 (MDA-MB-231 cells; MDA-MB-231, 96 hours, MTT) of 12.9 ± 0.3 µM and an IC80 (MDA-MB-231 cells; MDA-MB-231, 96 hours, MTT) of 33.9 ± 0.7 µM. The IC50 (human XIAP BIR3 domain) was 0.324 µM.

Molecule `CC[C@H](N)C(=O)N[C@@H]1C(=O)N2[C@@H](CC[C@@H]1Cn1cc(CO[C@H](C)[C@H](NC(=O)[C@H](C)NC)C(=O)N3CCC[C@H]3Cn3nnnc3Sc3ccccc3)nn1)CC[C@H]2C(=O)NC(c1ccccc1)c1ccccc1` [Compound 44a] has a viability at 0.0001 µM (K562 cells [1]) of 89%, an IC50 (MDA-MB-231 cells; MDA-MB-231, 96 hours, MTT) of 0.168 ± 0.002 µM and an IC80 (MDA-MB-231 cells; MDA-MB-231, 96 hours, MTT) of 0.288 ± 0.003 µM. For the same molecule, the IC50 (ARH77 cell line; ARH77, 24 hrs) was greater than 10 µM, the IC50 (ARH77 cell line; ARH77, 48 hrs) was greater than 10 µM and the IC50 (ARH77 cell line; ARH77, 72 hrs) was greater than 10 µM.

`CC[C@H](NC)C(=O)N[C@@H]1C(=O)N2[C@@H](CC[C@@H]1CO)CC[C@H]2C(=O)NC(c1ccccc1)c1ccccc1` [Compound 24g] gave an IC50 (MDA-MB-231 cells; MDA-MB-231, 96 h) of 0.237 ± 0.003 µM and an IC80 (MDA-MB-231 cells; MDA-MB-231, 96 hours, MTT) of 0.87 ± 0.004 µM.

Molecule `CC[C@H](N)C(=O)N[C@@H]1C(=O)N2[C@@H](CC[C@@H]1CO)CC[C@H]2C(=O)NC(c1ccccc1)c1ccccc1` [Compound 24a] has a viability at 0.05 µM (K562 cells [1]) of 90%, an IC50 (K562 cells [2]; K562, 24 hrs) greater than 10 µM and an IC50 (K562 cells [2]; K562, 48 hrs) greater than 10 µM. The IC50 (K562 cells [2]; K562, 72 hrs) was greater than 10 µM, the IC50 (HL60 cells [3]; HL60, 24 hrs) was greater than 10 µM and the viability at 0.01 µM (HL60 cells [5]) was 110%. For the same molecule, the IC80 (MDA-MB-231 cells; MDA-MB-231, 96 hours, MTT) was 3.9 ± 0.07 µM, the IC50 (KMS26 cell line; KMS26, 24 hrs) was greater than 10000 nM and the IC50 (ARH77 cell line; ARH77, 24 hrs) was greater than 10 µM. The IC50 (ARH77 cell line; ARH77, 48 hrs) was greater than 10 µM and the IC50 (ARH77 cell line; ARH77, 72 hrs) was greater than 10 µM.

For `CC[C@H](N)C(=O)N[C@@H]1C(=O)N2[C@@H](CC[C@@H]1COC(C)=O)CC[C@H]2C(=O)NC(c1ccccc1)c1ccccc1` [Compound 30a], the IC50 (K562 cells [2]; K562, 24 hrs) was greater than 10 µM, the IC50 (K562 cells [2]; K562, 48 hrs) was greater than 10 µM and the IC50 (K562 cells [2]; K562, 72 hrs) was greater than 10 µM. It also gave an IC50 (HL60 cells [3]; HL60, 24 hrs) greater than 10 µM, an IC50 (HL60 cells [3]; HL60, 48 hrs) of 1.79 µM and an IC50 (HL60 cells [3]; HL60, 72 hrs) of 0.623 µM.

Molecule `CC[C@H](NC)C(=O)N[C@@H]1C(=O)N2[C@@H](CC[C@@H]1CCN)CC[C@H]2C(=O)NC(c1ccccc1)c1ccccc1` [Compound 38d] has an IC50 (MDA-MB-231 cells; MDA-MB-231, 96 h) of 2.3 ± 1.2 µM and an IC80 (MDA-MB-231 cells; MDA-MB-231, 96 hours, MTT) of 14.8 ± 1 µM.

B1: mature Smac protein: mature Smac/DIABLO protein, endogenous inhibitor of XIAP (protein, UniProt Q9NR28 22-239, looked up)
Diablo IAP-binding …: LCVPVVANFKKRCFSELIRPWHKTVTIGFGVTLCAVPIAQKSEPHSLSSEALMRRAVSLVTDSTSTFLSQTTYALIEAITEYTKAVYTLTSLYRQYTSLLGKMNSEEEDEVWQVIIGARAEMTSKHQEYLKLETTWMTAVGLSEMAAEAAYQTGADQASITARNHIQLVKLQVEEVHQLSRKAETKLAEAQIEELRQKTQEEGEERAESEQEAYLRED
For B1, the Kd (XIAP) is listed as 0.42 µM.

Reference: patent US8609685B2, “SMAC mimetic compounds as apoptosis inducers” (CISI SCRL, priority 2007, dated 2013)
